Series [1] has as its system P. aeruginosa ATCC 27853. The series can be described thus: MIC and levofloxacin potentiation (broth microdilution). The class given is cell-based, Pseudomonas aeruginosa. As to the method:
Once synthesized, the three fluorinated EPI analogs (TXA11114, TXA11164 and TXA12027) were first assayed for their antibacterial activities against P. aeruginosa ATCC 27853. They had MICs of 100, >200 and 100 µg/mL, respectively (Table 1). […] Particularly, the inactivity of TXA11164 was surprising as the pKa values of both the amines are similar to that in TXA11114.
(§1) MIC assays for potentiation of antimicrobial activity against P. aeruginosa were performed as described previously.

The subject of series [2] is P. aeruginosa ATCC 27853 ompH mutants EPIR32, EPIR36, EPIR38. The series can be described thus: microbe, parasite or virus in culture. As to conditions: Pseudomonas aeruginosa. The class given is cell-based, Pseudomonas aeruginosa. The method, then:
as §1

In series [3] the test system is P. aeruginosa. The series can be described thus: MIC potentiation of antimicrobial agents by EPIs.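 On Fold difference of antibiotic MIC + TXA01182: TXA01182 tested at 6.25 µg/mL.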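 On Fold difference of antibiotic MIC + TXA09155: TXA09155 tested at 6.25 µg/mL.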 On Fold difference of antibiotic MIC + TXA11114: TXA11114 at 6.25 µg/mL.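 On MIC of antibiotic + TXA01182: TXA01182 tested at 6.25 µg/mL.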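 On MIC of antibiotic + TXA09155: TXA09155 tested at 6.25 µg/mL.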 On MIC of antibiotic + TXA11114: TXA11114 at 6.25 µg/mL. The conditions noted are these: for Fold difference of antibiotic MIC + TXA01182 / MIC of antibiotic + TXA01182: TXA01182 at […]; for Fold difference of antibiotic MIC + TXA09155 / MIC of antibiotic + TXA09155: TXA09155 at […]; for Fold difference of antibiotic MIC + TXA11114 / MIC of antibiotic + TXA11114: TXA11114 at […]. The class given is cell-based, Pseudomonas aeruginosa. The method, then:
In contrast, the activities of gentamicin and imipenem were unchanged in the presence of TXA11114 under the conditions tested. Although gentamicin can be transported by the MexXY efflux system, the absence of potentiation in this assay is not sufficient to draw conclusions regarding MexXY inhibition or overall efflux specificity.
as §1

Series [4] has as its system P. aeruginosa K1119 (∆mexAB-oprM). The series can be described thus: Antibiotic MIC potentiation in efflux mutants. The class given is cell-based, Pseudomonas aeruginosa. As to the method: (§2) Next, the ability of TXA11114 to inhibit P. aeruginosa mutants overexpressing MexAB-OprM was evaluated. Loss of function mutations in nalB resulting in the overexpression of MexAB-OprM have been identified in P. aeruginosa clinical isolates and are associated with resistance to cephalosporins, fluoroquinolones and aminoglycosides. In theory, an EPI should reverse the antimicrobial susceptibility lost in bacteria-overexpressing efflux pumps. Thus, the TXA11114 EPI activity was studied using antibiotics that display efflux liabilities in this RND efflux pump (Table 5).
as §1

Series [5] has as its system P. aeruginosa K1455 (↑mexAB-oprM). Description: Antibiotic MIC potentiation in efflux mutants. The class given is cell-based, Pseudomonas aeruginosa. As to the method: as §2, §1
Series [6] deals with P. aeruginosa K767 (WT). Description: Antibiotic MIC potentiation in efflux mutants. The class given is cell-based, Pseudomonas aeruginosa. As to the method: as §2, §1
The subject of series [7] is P. aeruginosa ATCC 27853. Description: Membrane polarization assay DiOC2(3). The conditions noted are these: Pseudomonas aeruginosa, ATCC27853; positive control; read-out: IC50 (membrane potential, DiOC2(3)). The class given is cell-based, Pseudomonas aeruginosa. As to the method:
RND efflux pumps require an intact proton motive force across the inner membrane to mediate drug efflux. Accordingly, collapse of the membrane potential could indirectly disable efflux activity and result in apparent antibiotic potentiation. To determine whether TXA11114 dissipates the membrane potential of P. aeruginosa, membrane polarization was assessed using the fluorescent probe 3,3′-diethyloxacarbocyanine iodide (DiOC2(3)). DiOC2(3) accumulates in cells with polarized membranes, undergoing a concentration-dependent shift from green to red fluorescence due to dye stacking; membrane depolarization prevents this shift. […] CCCP and azithromycin were included as positive and negative controls, respectively. […] This discrepancy likely reflects a methodological limitation of the DiOC2(3) assay in Gram-negative bacteria. Specifically, EDTA treatment is required to transiently permeabilize the outer membrane to permit DiOC2(3) access to the cytoplasmic membrane (see Methods). While necessary for probe uptake, EDTA can sensitize cells to secondary perturbations and may exaggerate subtle fluorescence changes at supraphysiological compound concentrations.
P. aeruginosa membrane polarization assays were conducted as described previously using strain ATCC 27853. Briefly, mid-exponential phase (OD600 of 0.5) P. aeruginosa was pelleted by centrifugation at 3000× g for 10 min at room temperature. Cells were then resuspended in 1× PBS, treated with 10 mM EDTA for 5 min and then centrifuged at 300× g for 10 min to remove EDTA. EDTA-treated cells were pelleted and resuspended to an OD600 of 1.0 in assay resuspension buffer. A 6 mM DiOC2(3) stock in DMSO was added to cells for a final concentration of 30 µM. DiOC2(3)-loaded cells were then added to a 96-well black bottom microplate for a final volume of 200 µL. […] After 15 min incubation at 37 °C in dark, DiOC2(3) fluorescence was recorded using the SpectraMax iD5 spectrophotometer (Molecular Devices, San Jose, CA, USA) using 450 nm excitation. Red fluorescence intensity was recorded at 670 nm emission.

Series [8] relates to P. aeruginosa ATCC 27853. Description: Intracellular ATP levels. The class given is cell-based, Pseudomonas aeruginosa. The conditions noted are these: three hours post-treatment. The method, then:
Further, a deviation from normal membrane function can affect the activity of respiratory components and diminish ATP synthesis. Thus, an indirect approach to assess a drug’s membrane effect is by monitoring cellular ATP levels after treatment. To exclude ATP depletion as a TXA11114 MoA, bacterial ATP levels were evaluated three hours post-treatment. […] Azithromycin was used as a negative control.
P. aeruginosa intracellular ATP levels were determined as described previously using an ATP determination kit (Invitrogen, Life Technologies, Carlsbad, CA, USA). Bacterial culture strain ATCC 27853 was grown to the mid-log phase (OD600 = 0.7), washed, and resuspended in the same volume of PBSM (1X PBS, 1mM MgCl2). […] After treatment, the cells were lysed in chloroform which was subsequently removed by boiling at 80 °C. The persistent ATP from cell lysate was measured in a 96-well black flat-bottom plate by measuring the luminescence. Luminescence was converted to concentration from standard curve. […] Error bars represent the standard deviation of triplicates.

The nature of series [9]: in vivo. The conditions noted are these: female, CD-1, mouse, iv. As to the method:
Thus, the safety and tolerability of TXA11114 was determined to find an optimum dosing capability. The maximum tolerated dose (MTD) of TXA11114 was assessed in female mice (CD-1, 6–8 weeks old) at the University of North Texas Health Science Center (UNTHSC). TXA11114 was administered IV to groups of three female mice. Mice were administered TXA11114 in the range 30–240 mg/kg (IV bolus). […] As doses are tolerated (not resulting in effects such as mortality, convulsions, or other severe morbidity), they are increased. Survival and general observations as to the tolerability of the administered dose started immediately and continued for a period of 48 h after each dose was recorded.

In series [10] the test system is P. aeruginosa ATCC 27853. Description: Neutropenic murine thigh infection model. The class given is in vivo, CD-1 mice. The conditions noted are these: thigh or lung infection models. The method, then: Female CD-1 mice (6–8 weeks old; 22 ± 2 g) were obtained from Envigo Laboratories, quarantined for at least 3 days, and housed 5 per cage in accordance with the approved IACUC protocol (IACUC-2017-0049). Neutropenia was induced by intraperitoneal (IP) administration of cyclophosphamide (Cytoxan) at 150 mg/kg on day 4 and 100 mg/kg on day 1 prior to infection.
Mice were infected intramuscularly (IM) in the right thigh with 0.1 mL of bacterial suspension containing approximately 1 × 10^5–10^6 CFU/mL. […] At 2 h or 24 h post-infection, mice were euthanized by CO2 asphyxiation, and thighs were aseptically excised and placed in 2 mL sterile phosphate-buffered saline (PBS) on ice. Tissue homogenization was performed using a Polytron PT10-35 (12 mm aggregate, Kinematica, Malters, Switzerland).
Plates were incubated overnight at 37 °C, and colonies were enumerated the following day.

Series [11] deals with P. aeruginosa. More on the design: method as in PMID 35052908, PMID 35740123. The conditions noted are these: against P. aeruginosa; cited from earlier work.
Setting [12] is: ATCC 27853 parent strain (Table S1).
Setting [13] is: Pseudomonas aeruginosa, ATCC27853, ATCC 27853 parent strain (Table S1), read-out: MIC.

Where two headings read alike, the source gives them in different places.

As to `CN(C)c1cc(NC(=O)CNC(C)(C)C)c(O)c2c1C[C@H]1C[C@H]3[C@H](N(C)C)C(O)=C(C(N)=O)C(=O)[C@@]3(O)C(O)=C1C2=O` [TGC, tigecycline], the MIC stood at 8 mg/L in [1] (setting [12]); 2 mg/L in series [2] (ATCC27853, EPIR32); 2 mg/L in [2] (ATCC27853, EPIR36); 8 mg/L in series [2] (ATCC27853, EPIR38).
For the compound `CO/N=C(\C(=O)N[C@@H]1C(=O)N2C(C(=O)[O-])=C(C[N+]3(C)CCCC3)CS[C@H]12)c1csc(N)n1` [Cefepime], in [3], the “Fold difference of antibiotic MIC + TXA01182” value turned out to be 2 fold, the “MIC of antibiotic + TXA01182” value amounted to 1 mg/L, the “Fold difference of antibiotic MIC + TXA09155” value turned out to be 4 fold and the “MIC of antibiotic + TXA09155” value worked out at 0.5 mg/L. Further, in series [3], the “Fold difference of antibiotic MIC + TXA11114” value is 4 fold and the “MIC of antibiotic + TXA11114” value amounted to 0.5 mg/L. The “MIC Ratio of Antibiotics Alone/(Antibiotics + […] TXA11114)” value (shortened to “MIC Ratio”) in series [4] came to 2. Also, the “MIC Ratio” value in series [5] is reported as 16. Further, in series [6], the “MIC Ratio” value came to 8.
As usually defined, the IC50 is the concentration at which inhibition is half-maximal. For `N#CC(C#N)=NNc1cccc(Cl)c1` [CCCP, carbonyl cyanide 3-chlorophenylhydrazone], the IC50 in series [7] was found to be 0.017 µM. Also, the “Cellular ATP level” value in series [8] is recorded as “significant depletion of ATP”.
`C[C@@H](O)[C@H]1C(=O)N2C(C(=O)O)=C(S[C@@H]3CN[C@H](C(=O)N(C)C)C3)[C@H](C)[C@H]12` [MEM, meropenem]: the MIC was found to be 1 mg/L in series [1] (setting [13]); 0.125 mg/L in series [2] (ATCC27853, EPIR32); 0.125 mg/L in [2] (ATCC27853, EPIR36); 0.5 mg/L in series [2] (ATCC27853, EPIR38).
With `NCC[C@H](O)C(=O)N[C@@H]1C[C@H](N)[C@@H](O[C@H]2O[C@H](CN)[C@@H](O)[C@H](O)[C@H]2O)[C@H](O)[C@H]1O[C@H]1O[C@H](CO)[C@@H](O)[C@H](N)[C@H]1O` [AMK, amikacin], the MIC in series [1] (setting [13]) was determined as 8 mg/L; in series [2] (ATCC27853, EPIR32) it was 2 mg/L; in [2] (ATCC27853, EPIR36) it was 1 mg/L; in [2] (ATCC27853, EPIR38), 4 mg/L.
As for `C[C@@H](O)[C@H]1C(=O)N2C(C(=O)O)=C(SCCN=CN)C[C@H]12` [Imipenem], in series [3], the “Fold difference of antibiotic MIC + TXA01182” value came to 1 fold, the “MIC of antibiotic + TXA01182” value was determined as 4 mg/L, the “Fold difference of antibiotic MIC + TXA09155” value stood at 1 fold and the “MIC of antibiotic + TXA09155” value worked out at 4 mg/L. In addition, in [3], the “Fold difference of antibiotic MIC + TXA11114” value stood at 1 fold and the “MIC of antibiotic + TXA11114” value came out at 4 mg/L. Moreover, in [3] (listed as imipenem), the “Fold difference of antibiotic MIC + TXA11114” value is “unchanged”. Besides, the “MIC Ratio” value in [4] amounted to 1. In addition, in series [5], the “MIC Ratio” value is given as 1. In addition, the “MIC Ratio” value in series [6] worked out at 1.
Consider `CC(C)(O/N=C(\C(=O)N[C@@H]1C(=O)N2C(C(=O)[O-])=C(C[n+]3ccccc3)CS[C@H]12)c1csc(N)n1)C(=O)O` [Ceftazidime, ceftazidime], for which the MIC in series [1] (setting [12]) amounted to 2 mg/L; in series [2] (ATCC27853, EPIR32) it was 0.25 mg/L; in series [2] (ATCC27853, EPIR38) it was 2 mg/L. In addition, the “MIC of antibiotic + TXA01182” value in series [3] worked out at 1 mg/L. The “MIC of antibiotic + TXA11114” value in series [3] is 0.5 mg/L.
Regarding `NCCC[C@@H](N)CNC(=O)c1cc2ccc(-c3ccc(F)cc3)cc2[nH]1` [TXA01182], the “Fold MIC reduction [LVX/EPI-LVX]” value in [1] (EPI at […], ATCC 27853) is listed as 8 fold. In addition, in series [1] (Pseudomonas aeruginosa, ATCC27853, EPI alone, ATCC 27853, read-out: EPI MIC), the MIC worked out at 100 mg/L. In addition, the LVX MIC (+EPI) in series [1] (levofloxacin MIC with EPI at […], ATCC 27853) turned out to be 0.125 mg/L. The same compound returned an MTD at 48 h in series [9] of 12.5 mg/kg. Also, the “Improvement of levofloxacin efficacy in murine thigh or lung infection models” value in series [10] was “neither TXA01182 nor TXA09155 improved levofloxacin efficacy”. In addition, in series [11], the “Lowest concentration enhancing activity of monobactams, fluoroquinolones, sulfonamides and tetracyclines” value is 6.25 µg/mL.

These data come from paper PMC13114161 (Antibiotics, 2026).
